ChEMBL document CHEMBL1141575, “Preparation and in vitro biological evaluation of tetrapyrrole ethanolamide derivatives as potential anticancer agents” (Bioorg Med Chem Lett, 2008)

Columns and labels:
HeLa [1] = assay: Survival of human HeLa cells at 0.1 uM under deem light after 96 hrs by MTT assay relative to control; format: functional; conditions: read-out: Survival
HeLa [2] = assay: Survival of human HeLa cells at 50 uM under deem light after 96 hrs by MTT assay relative to control; format: functional; conditions: read-out: Survival
HeLa [3] = assay: Survival of human HeLa cells at 100 uM under deem light after 96 hrs by MTT assay relative to control; format: functional; conditions: read-out: Survival
NCI-H69 [4] = assay: Survival of human H69 cells at 0.1 uM under deem light after 96 hrs by MTT assay relative to control; format: functional; conditions: NCI-H69, 96 h, read-out: Survival
NCI-H69 [5] = assay: Survival of human H69 cells at 50 uM under deem light after 96 hrs by MTT assay relative to control; format: functional; conditions: NCI-H69, 96 h, read-out: Survival
NCI-H69 [6] = assay: Survival of human H69 cells at 100 uM under deem light after 96 hrs by MTT assay relative to control; format: functional; conditions: NCI-H69, 96 h, read-out: Survival
[7] = Survival of human H209 cells at 0.1 uM under deem light after 96 hrs by MTT assay relative to control; format: functional; conditions: NCI-H209, 96 h, read-out: Survival
[8] = Survival of human H209 cells at 50 uM under deem light after 96 hrs by MTT assay relative to control; format: functional; conditions: NCI-H209, 96 h, read-out: Survival
[9] = Survival of human H209 cells at 100 uM under deem light after 96 hrs by MTT assay relative to control; format: functional; conditions: NCI-H209, 96 h, read-out: Survival
[10] = Survival of human 2780.9S cells at 0.1 uM under deem light after 96 hrs by MTT assay relative to control; format: functional; conditions: read-out: Survival
[11] = Survival of human 2780.9S cells at 50 uM under deem light after 96 hrs by MTT assay relative to control; format: functional; conditions: read-out: Survival
[12] = Survival of human 2780.9S cells at 100 uM under deem light after 96 hrs by MTT assay relative to control; format: functional; conditions: read-out: Survival
[13] = Survival of human MDA-MB cells at 0.1 uM under deem light after 96 hrs by MTT assay relative to control; format: functional; conditions: read-out: Survival
[14] = Survival of human MDA-MB cells at 10 uM under deem light after 96 hrs by MTT assay relative to control; format: functional; conditions: read-out: Survival
[15] = Survival of human MDA-MB cells at 50 uM under deem light after 96 hrs by MTT assay relative to control; format: functional; conditions: read-out: Survival
[16] = Survival of human MDA-MB cells at 100 uM under deem light after 96 hrs by MTT assay relative to control; format: functional; conditions: read-out: Survival
SiHa [17] = assay: Cytotoxicity against human SIHA cells under deem light after 96 hrs by MTT assay; format: functional, cell-based
Raji [18] = assay: Cytotoxicity against human Raji cells under deem light after 96 hrs by MTT assay; format: functional, cell-based
[19] = Cytotoxicity against human MDA-MB cells under deem light after 96 hrs by MTT assay; format: functional, cell-based
K562 [20] = assay: Cytotoxicity against human K562 cells under deem light after 96 hrs by MTT assay; format: functional, cell-based; conditions: K562, 96 h
HeLa [21] = assay: Cytotoxicity against human HeLa cells under deem light after 96 hrs by MTT assay; format: functional, cell-based
NCI-H69 [22] = assay: Cytotoxicity against human H69 cells under deem light after 96 hrs by MTT assay; format: functional, cell-based; conditions: NCI-H69, 96 h
Daudi = assay: Cytotoxicity against human Daudi cells under deem light after 96 hrs by MTT assay; format: functional, cell-based
[23] = Cytotoxicity against human 2780.9S cells under deem light after 96 hrs by MTT assay; format: functional, cell-based
[24] = Photohemolysis in human RBC in absence of light; format: ADME, cell-based; conditions: erythrocyte
[25] = Photohemolysis in human RBC at 125 nM under exposure to light for 10 mins; format: ADME, cell-based, Erythrocyte; conditions: human red blood cells, read-out: Activity
[26] = Photohemolysis in human RBC assessed as concentration required to 50% hemolysis under light exposure for 5 mins; format: ADME, cell-based, Erythrocyte; conditions: human red blood cells, read-out: Activity
[27] = Photohemolysis in human RBC assessed as concentration required to 50% hemolysis under light exposure for 10 mins; format: ADME, cell-based, Erythrocyte; conditions: human red blood cells, read-out: Activity
SiHa [28] = assay: Survival of human SIHA cells at 1 uM under deem light after 96 hrs by MTT assay relative to control; format: functional; conditions: read-out: Survival
K562 [29] = assay: Survival of human K562 cells at 1 uM under deem light after 96 hrs by MTT assay relative to control; format: functional; conditions: K562, 96 h, read-out: Survival
Raji [30] = assay: Survival of human Raji cells at 1 uM under deem light after 96 hrs by MTT assay relative to control; format: functional; conditions: read-out: Survival
HeLa [31] = assay: Survival of human HeLa cells at 1 uM under deem light after 96 hrs by MTT assay relative to control; format: functional; conditions: read-out: Survival
NCI-H69 [32] = assay: Survival of human H69 cells at 1 uM under deem light after 96 hrs by MTT assay relative to control; format: functional; conditions: NCI-H69, 96 h, read-out: Survival
[33] = Survival of human H209 cells at 1 uM under deem light after 96 hrs by MTT assay relative to control; format: functional; conditions: NCI-H209, 96 h, read-out: Survival
[34] = Survival of human 2780.9S cells at 1 uM under deem light after 96 hrs by MTT assay relative to control; format: functional; conditions: read-out: Survival
[35] = Survival of human MDA-MB cells at 1 uM under deem light after 96 hrs by MTT assay relative to control; format: functional; conditions: read-out: Survival
Raji [36] = assay: Survival of human Raji cells at 15.7 uM under deem light after 96 hrs by MTT assay relative to control; format: functional; conditions: read-out: Survival
HeLa [37] = assay: Survival of human HeLa cells at 15.7 uM under deem light after 96 hrs by MTT assay relative to control; format: functional; conditions: read-out: Survival
NCI-H69 [38] = assay: Survival of human H69 cells at 15.7 uM under deem light after 96 hrs by MTT assay relative to control; format: functional; conditions: NCI-H69, 96 h, read-out: Survival
[39] = Survival of human H209 cells at 15.7 uM under deem light after 96 hrs by MTT assay relative to control; format: functional; conditions: NCI-H209, 96 h, read-out: Survival
[40] = Survival of human 2780.9S cells at 15.7 uM under deem light after 96 hrs by MTT assay relative to control; format: functional; conditions: read-out: Survival
[41] = Survival of human MDA-MB cells at 15.7 uM under deem light after 96 hrs by MTT assay relative to control; format: functional; conditions: read-out: Survival
K562 [42] = assay: Survival of human K562 cells at 15.7 uM under deem light after 96 hrs by MTT assay relative to control; format: functional; conditions: K562, 96 h, read-out: Survival
SiHa [43] = assay: Survival of human SIHA cells at 50 uM under deem light after 96 hrs by MTT assay relative to control; format: functional; conditions: read-out: Survival
SiHa [44] = assay: Survival of human SIHA cells at 100 uM under deem light after 96 hrs by MTT assay relative to control; format: functional; conditions: read-out: Survival
K562 [45] = assay: Survival of human K562 cells at 0.1 uM under deem light after 96 hrs by MTT assay relative to control; format: functional; conditions: K562, 96 h, read-out: Survival
K562 [46] = assay: Survival of human K562 cells at 50 uM under deem light after 96 hrs by MTT assay relative to control; format: functional; conditions: K562, 96 h, read-out: Survival
K562 [47] = assay: Survival of human K562 cells at 100 uM under deem light after 96 hrs by MTT assay relative to control; format: functional; conditions: K562, 96 h, read-out: Survival
Raji [48] = assay: Survival of human Raji cells at 0.1 uM under deem light after 96 hrs by MTT assay relative to control; format: functional; conditions: read-out: Survival
Raji [49] = assay: Survival of human Raji cells at 50 uM under deem light after 96 hrs by MTT assay relative to control; format: functional; conditions: read-out: Survival
Raji [50] = assay: Survival of human Raji cells at 100 uM under deem light after 96 hrs by MTT assay relative to control; format: functional; conditions: read-out: Survival

For CCCOC(C)C1=C(C)c2cc3[nH]c(cc4nc(cc5[nH]c(cc1n2)c(C)c5CCC(=O)NCCO)C(CCC(=O)NCCO)=C4C)c(C)c3C(C)OCCC (stereo unspecified) [HEMATOPORPHYRIN PROPYLETHER ETHANOLAMIDE], the viability at 0.1 µM (HeLa [1]) was 99.6%, the viability at 50 µM (HeLa [2]) was 7.4% and the viability at 100 µM (HeLa [3]) was 10.5%. The viability at 0.1 µM (NCI-H69 [4]) was 95.5%, the viability at 50 µM (NCI-H69 [5]) was 16.1% and the viability at 100 µM (NCI-H69 [6]) was 14.4%. It also gave a viability at 0.1 µM [7] of 97.8%, a viability at 50 µM [8] of 8.6% and a viability at 100 µM [9] of 9.8%. It also gave a viability at 0.1 µM [10] of 106%, a viability at 50 µM [11] of 12.3% and a viability at 100 µM [12] of 6.5%. The viability at 0.1 µM [13] was 137%, the viability at 10 µM [14] was 104% and the viability at 50 µM [15] was 7.4%. For the same compound, the viability at 100 µM [16] was 5.2%, the IC50 (SiHa [17]) was 44 µM and the IC50 (Raji [18]) was 21 µM. For the same compound, the IC50 [19] was 12 µM, the IC50 (K562 [20]) was 22 µM and the IC50 (HeLa [21]) was 21 µM. For the same compound, the IC50 (NCI-H69 [22]) was 22 µM, the IC50 (Daudi) was 22 µM and the IC50 [23] was 16 µM. For the same compound, the Activity [24] was “Non-toxic”, the hemolysis at 10 min, 0.125 µM [25] was 100% and the HC50 at 5 min [26] was 90 nM. It also gave an HC50 at 10 min [27] of 210 nM, a viability at 1 µM (SiHa [28]) of 100% and a viability at 1 µM (K562 [29]) of 84.7%. For the same compound, the viability at 1 µM (Raji [30]) was 99.5%, the viability at 1 µM (HeLa [31]) was 119% and the viability at 1 µM (NCI-H69 [32]) was 97%. The viability at 1 µM [33] was 105%, the viability at 1 µM [34] was 100% and the viability at 1 µM [35] was 112%. It also gave a viability at 15.7 µM (Raji [36]) of 23.6%, a viability at 15.7 µM (HeLa [37]) of 7.8% and a viability at 15.7 µM (NCI-H69 [38]) of 17.1%. For the same compound, the viability at 15.7 µM [39] was 16.1%, the viability at 15.7 µM [40] was 19.3% and the viability at 15.7 µM [41] was 24.3%. The viability at 15.7 µM (K562 [42]) was 28.5%, the viability at 50 µM (SiHa [43]) was 2.2% and the viability at 100 µM (SiHa [44]) was 6.7%. It also gave a viability at 0.1 µM (K562 [45]) of 72.9%, a viability at 50 µM (K562 [46]) of 5.7% and a viability at 100 µM (K562 [47]) of 6.67%. For the same compound, the viability at 0.1 µM (Raji [48]) was 96.1%, the viability at 50 µM (Raji [49]) was 5.9% and the viability at 100 µM (Raji [50]) was 5.4%.
